# In patent publication EP0511845B1, “Pesticidal 1-aryl-5-(substituted alkylideneimino)-pyrazoles” (AVENTIS CROPSCIENCE S.A., priority 1991, dated 1992):
# What was measured:
# Format in all cases: in vivo
# Spodoptera eridania [1] = experiment: Southern armyworm on sorghum - systemic evaluation (soil drench); conditions: systemic via root uptake; for control of southern armyworm after six days on sorghum: 20 ppm soil concentration dose (and subsequent dilutions); for control of southern armyworm at thirteen days (sorghum): on sorghum
# Procedure: (§1) Cotton aphid and southern armyworm (on cotton) and greenbug and southern armyworm (on sorghum) - systemic evaluation: A stock solution or suspension was prepared to deliver 5 ml of a 20 ppm soil concentration dose (and subsequent dilutions) as a drench to 6 cm pots containing cotton and sorghum plants. The cotton plants were previously infested with cotton aphids about two days before treatment and greenbug one day before treatment. After holding the plants about three days, the plants were rated for aphid activity. Again at six days, the plants were rated for aphid activity and the cotton aphids and greenbugs were counted and mortality was assessed. Portions of the cotton and sorghum foliage were excised, placed in separate plastic containers, and infested with second instar larvae of southern armyworms. The potted plants were dipped in sulfotepp to kill the remaining aphids and returned to the greenhouse for regrowth. Thirteen days after treatment the remaining foliage was excised and fed to southern armyworm. Mortality was assessed six days after infestation.
# Heliothis virescens [2] = experiment: Tobacco budworm - contact evaluation (topical application); conditions: topical or contact tests; application dose of 63 µg/g body weight
# Procedure: For tobacco budworm contact tests, a stock solution was prepared by dissolving the compound in acetone and then further diluted to provide the required serial dilution concentrations.
# Tobacco budworm - contact evaluation: The following topical application method provides an assessment of contact toxicity of a compound to tobacco budworm larvae The test compound solution at sequential two-fold dilution concentrations from 10 down to 0.16 µg/µl was applied by a microinjector in repli cated 1 µl portions to the dorsum of approximately 20 mg tobacco budworm larvae. This is equivalent to applied doses of 500 down to 8 µg/g body weight. An acetone treated control, without any test compounds, as also applied. A treated control with a commercial technical compound, cypermethrin or thiodicarb, also in acetone was used as a standard. The treated larvae were placed, individually, in separate plastic petri dishes containing an untreated cotton leaf and a moist dental wick. The treated larvae were maintained at about 27°C and 50% relative humidity. The percent mortality was rated 1 and 4 days after treatment.
# Spodoptera eridania [3] = experiment: Southern armyworm on cotton - systemic evaluation (soil drench); conditions: systemic via root uptake; for control of southern armyworm at thirteen days: plant not repeated, follows the cotton clause; for control of southern armyworm at six days on cotton: 20 ppm soil concentration dose (and subsequent dilutions)
# Procedure: as §1
# Heliothis virescens [4] = experiment: Tobacco budworm on sorghum - systemic evaluation (soil drench); conditions: systemic via root uptake, 10.0 ppm soil concentration
# Procedure: (§2) For southern root-knot nematod and systemic tests for southern armyworm, cotton aphid, tobacco budworm and greenbug, a stock solution or suspension was prepared by adding 15 mg of the test compound to 250 mg of dimethylformamide, 1250 mg of acetone and 3 mg of the emulsifier blend referenced above. Water was then added to provide a test compound concentration of 150 ppm. When necessary, sonication was provided to insure complete dispersion. Cotton aphid and tobacco budworm (on cotton) and greenbug and tobacco budworm (on sorghum) - systemic evaluation: A 7.0 ml aliquot of the 150 ppm nematode test solution was applied to deliver the equivalent of 10.0 ppm soil concentration dose as a drench to 6 cm pots containing cotton and sorghum plants. The cotton plants were previously infested with cotton aphids about two days before treatment and greenbug one day before treatment. After holding the plants about three days, the plants were rated for aphid activity. Again at six days, the plants were rated for aphid activity and the cotton aphids and greenbugs were counted and mortality was assessed. Portions of the cotton and sorghum foliage were excised, placed in separate plastic containers, and infested with second instar larvae of tobacco budworm. The potted plants were dipped in sulfotepp to kill the remaining aphids and returned to the greenhouse for regrowth. Thirteen days after treatment, the remaining foliage was excised and fed to tobacco budworms. Mortality was assessed six days after infestation.
# Aphis gossypii = experiment: Cotton aphid on cotton - systemic evaluation (soil drench); conditions: systemic via root uptake, soil drench at soil concentrations of the protocols (10.0 or 20 ppm)
# Procedure: as §2, with “infestation. Cotton aphid and southern armyworm (on cotton) and greenbug and southern armyworm (on sorghum) - systemic evaluation: A stock solution or suspension was prepared to deliver 5 ml of a 20 ppm soil concentration dose (and subsequent dilutions) as a drench to 6 cm pots containing cotton and sorghum plants. The cotton plants were previously infested with cotton aphids about two days before treatment and greenbug one day before treatment. After holding the plants about three days, the plants were rated for aphid activity. Again at six days, the plants were rated for aphid activity and the cotton aphids and greenbugs were counted and mortality was assessed. Portions of the cotton and sorghum foliage were excised, placed in separate plastic containers, and infested with second instar larvae of southern armyworms. The potted plants were dipped in sulfotepp to kill the remaining aphids and returned to the greenhouse for regrowth. Thirteen days after treatment the remaining foliage was excised and fed to southern armyworm. Mortality was assessed six days after infestation.” for “infestation.”
# Schizaphis graminum = experiment: Greenbug on sorghum - systemic evaluation (soil drench); conditions: systemic via root uptake, soil drench at soil concentrations of the protocols (10.0 or 20 ppm)
# Procedure: as §2, with “infestation. Cotton aphid and southern armyworm (on cotton) and greenbug and southern armyworm (on sorghum) - systemic evaluation: A stock solution or suspension was prepared to deliver 5 ml of a 20 ppm soil concentration dose (and subsequent dilutions) as a drench to 6 cm pots containing cotton and sorghum plants. The cotton plants were previously infested with cotton aphids about two days before treatment and greenbug one day before treatment. After holding the plants about three days, the plants were rated for aphid activity. Again at six days, the plants were rated for aphid activity and the cotton aphids and greenbugs were counted and mortality was assessed. Portions of the cotton and sorghum foliage were excised, placed in separate plastic containers, and infested with second instar larvae of southern armyworms. The potted plants were dipped in sulfotepp to kill the remaining aphids and returned to the greenhouse for regrowth. Thirteen days after treatment the remaining foliage was excised and fed to southern armyworm. Mortality was assessed six days after infestation.” for “infestation.”
compound,measurement,setting,value
COc1cc(O)c(C=Nc2c(S(=O)(=O)C(F)(F)F)c(C#N)nn2-c2c(Cl)cc(C(F)(F)F)cc2Cl)c(OC)c1 [compound 72],control of southern armyworm after six days on sorghum,Spodoptera eridania [1],30-100%
Cc1cc(C=Nc2c(SC(F)(F)Cl)c(C#N)nn2-c2c(Cl)cc(C(F)(F)F)cc2Cl)cc(C)c1O [compound 80],control of tobacco budworm (TBW),Heliothis virescens [2],50-100%
CC(C)(C)c1cc(C=Nc2c(SC(F)(F)F)c(C#N)nn2-c2c(Cl)cc(C(F)(F)F)cc2Cl)cc(C(C)(C)C)c1O [compound 64],control of southern armyworm at thirteen days,Spodoptera eridania [3],30-100%
COc1cc(C=Nc2c(SC(F)(F)F)c(C#N)nn2-c2c(Cl)cc(C(F)(F)F)cc2Cl)cc(O)c1OC [compound 59],control of tobacco budworm (TBW),Heliothis virescens [2],50-100%
Cc1cc(C=Nc2c(SC(F)(F)F)c(C#N)nn2-c2c(Cl)cc(C(F)(F)F)cc2Cl)ccc1O [compound 19],control of tobacco budworm after six days on sorghum,Heliothis virescens [4],100%
same,control of cotton aphid after six days on cotton,Aphis gossypii,30-100%
same,control of greenbug after six days on sorghum,Schizaphis graminum,30-100%
COc1ccccc1C=Nc1c(SC(F)(F)F)c(C#N)nn1-c1c(Cl)cc(C(F)(F)F)cc1Cl [compound 113],control of southern armyworm at six days on cotton,Spodoptera eridania [3],30-100%
COc1ccc(C=Nc2c(SC(F)(F)F)c(C#N)nn2-c2c(Cl)cc(C(F)(F)F)cc2Cl)cc1 [compound 21],control of greenbug after six days on sorghum,Schizaphis graminum,30-100%
CCN(CC)c1ccc(C=Nc2c(SC(F)(F)F)c(C#N)nn2-c2c(Cl)cc(C(F)(F)F)cc2Cl)c(O)c1 [compound 117],control of southern armyworm at thirteen days (sorghum),Spodoptera eridania [1],70-100%
COc1cc(C=Nc2c(SC(F)(F)F)c(C#N)nn2-c2c(Cl)cc(C(F)(F)F)cc2Cl)ccc1OCc1ccccc1 [compound 120],control of southern armyworm at six days on cotton,Spodoptera eridania [3],30-100%
"N#Cc1nn(-c2c(Cl)cc(C(F)(F)F)cc2Cl)c(N=Cc2ccc(O)cc2)c1SC(F)(F)F [compound 4, 1-(2,6-dichloro-4-trifluoromethylphenyl]-3-cyano-4-trifluoromethylsulfenyl-5-[(4-hydroxyphenyl]methylideneimino]pyrazole]",control of greenbug after six days on sorghum,Schizaphis graminum,30-100%
"COc1cc(C=Nc2c(SC(F)(F)F)c(C#N)nn2-c2c(Cl)cc(C(F)(F)F)cc2Cl)cc(OC)c1O [compound 13, 1-(2,6-dichloro-4-trifluoromethylphenyl)-3-cyano-4-trifluoromethylsulfenyl-5-[(3,5-dimethoxy-4-hydroxyphenyl)methylideneimino]pyrazole]",control of tobacco budworm (TBW),Heliothis virescens [2],50-100%
same,control of cotton aphid after six days on cotton,Aphis gossypii,30-100%
N#Cc1cccc(C=Nc2c(SC(F)(F)F)c(C#N)nn2-c2c(Cl)cc(C(F)(F)F)cc2Cl)c1 [compound 116],control of tobacco budworm (TBW),Heliothis virescens [2],50-100%
COc1cc(C=Nc2c(SC(F)(F)F)c(C#N)nn2-c2c(Cl)cc(C(F)(F)F)cc2Cl)cc(Br)c1O [compound 42],control of tobacco budworm (TBW),Heliothis virescens [2],50-100%
COc1ccc(C=Nc2c(SC(F)(F)Cl)c(C#N)nn2-c2c(Cl)cc(C(F)(F)F)cc2Cl)cc1O [compound 81],control of tobacco budworm (TBW),Heliothis virescens [2],50-100%
N#Cc1nn(-c2c(Cl)cc(C(F)(F)F)cc2Cl)c(N=Cc2ccc(O)c(Br)c2)c1SC(F)(F)F [compound 100],control of southern armyworm after six days on sorghum,Spodoptera eridania [1],30-100%
"N#Cc1nn(-c2c(Cl)cc(C(F)(F)F)cc2Cl)c(N=Cc2cc[n+]([O-])cc2)c1SC(F)(F)F [compound 18, 1-(2,6-dichloro-4-trifluoromethylphenyl)-3-cyano-4-trifluoromethylsulfenyl-5-[(4-pyridyl-N-oxide)methylideneimino]pyrazole]",control of tobacco budworm after six days on sorghum,Heliothis virescens [4],100%
same,control of cotton aphid after six days on cotton,Aphis gossypii,30-100%
same,control of greenbug after six days on sorghum,Schizaphis graminum,30-100%
N#Cc1nn(-c2c(Cl)cc(C(F)(F)F)cc2Cl)c(N=Cc2cc(C(F)(F)F)cc(C(F)(F)F)c2)c1SC(F)(F)F [compound 112],control of cotton aphid after six days on cotton,Aphis gossypii,30-100%
same,control of greenbug after six days on sorghum,Schizaphis graminum,30-100%
N#Cc1nn(-c2c(Cl)cc(C(F)(F)F)cc2Cl)c(N=Cc2ccco2)c1SC(F)(F)F [compound 20],control of tobacco budworm after six days on sorghum,Heliothis virescens [4],100%
same,control of greenbug after six days on sorghum,Schizaphis graminum,30-100%
N#Cc1nn(-c2c(Cl)cc(C(F)(F)F)cc2Cl)c(N=Cc2cc[n+]([O-])cc2)c1S(=O)(=O)C(F)(F)F [compound 68],control of southern armyworm at thirteen days,Spodoptera eridania [3],30-100%
COc1ccc(C=Nc2c(S(=O)(=O)C(F)(F)F)c(C#N)nn2-c2c(Cl)cc(C(F)(F)F)cc2Cl)cc1O [compound 65],control of southern armyworm at thirteen days,Spodoptera eridania [3],30-100%
same,control of southern armyworm at thirteen days (sorghum),Spodoptera eridania [1],70-100%
N#Cc1nn(-c2c(Cl)cc(C(F)(F)F)cc2Cl)c(N=Cc2cc(O)c(O)c(Br)c2)c1SC(F)(F)F [compound 93],control of greenbug after six days on sorghum,Schizaphis graminum,30-100%
COc1cc(C=Nc2c(SC(F)(F)F)c(C#N)nn2-c2c(Cl)cc(C(F)(F)F)cc2Cl)ccc1OC(C)=O [compound 69],control of tobacco budworm (TBW),Heliothis virescens [2],50-100%
same,control of southern armyworm at six days on cotton,Spodoptera eridania [3],30-100%
same,control of southern armyworm after six days on sorghum,Spodoptera eridania [1],30-100%
COc1cccc(C=Nc2c(SC(F)(F)F)c(C#N)nn2-c2c(Cl)cc(C(F)(F)F)cc2Cl)c1O [compound 50],control of tobacco budworm (TBW),Heliothis virescens [2],50-100%
COc1cc(C=Nc2c(SC(F)(F)F)c(C#N)nn2-c2ncc(C(F)(F)F)cc2Cl)ccc1O [compound 87],control of greenbug after six days on sorghum,Schizaphis graminum,30-100%
COc1cc(C=Nc2c(SC(F)(F)F)c(C#N)nn2-c2c(Cl)cc(C(F)(F)F)cc2Cl)cc([N+](=O)[O-])c1O [compound 74],control of greenbug after six days on sorghum,Schizaphis graminum,30-100%
CCCCCCCC(=O)Oc1ccc(C=Nc2c(SC(F)(F)F)c(C#N)nn2-c2c(Cl)cc(C(F)(F)F)cc2Cl)cc1OC [compound 121],control of southern armyworm after six days on sorghum,Spodoptera eridania [1],30-100%
CSc1c(C#N)nn(-c2c(Cl)cc(C(F)(F)F)cc2Cl)c1N=Cc1ccc(O)cc1 [compound 111],control of cotton aphid after six days on cotton,Aphis gossypii,30-100%
same,control of greenbug after six days on sorghum,Schizaphis graminum,30-100%
COc1cc(C=Nc2c(SC)c(C#N)nn2-c2c(Cl)cc(C(F)(F)F)cc2Cl)ccc1O [compound 110],control of southern armyworm at thirteen days,Spodoptera eridania [3],30-100%
same,control of cotton aphid after six days on cotton,Aphis gossypii,30-100%
same,control of greenbug after six days on sorghum,Schizaphis graminum,30-100%
same,control of southern armyworm at thirteen days (sorghum),Spodoptera eridania [1],70-100%
N#Cc1nn(-c2c(Cl)cc(C(F)(F)F)cc2Cl)c(N=Cc2ncc[nH]2)c1SC(F)(F)F [compound 115],control of southern armyworm after six days on sorghum,Spodoptera eridania [1],30-100%
CCOc1cc(C=Nc2c(S(=O)(=O)C(F)(F)F)c(C#N)nn2-c2c(Cl)cc(C(F)(F)F)cc2Cl)ccc1O [compound 61],control of tobacco budworm (TBW),Heliothis virescens [2],50-100%
Cc1cc(C=Nc2c(S(=O)(=O)C(F)(F)F)c(C#N)nn2-c2c(Cl)cc(C(F)(F)F)cc2Cl)ccc1O [compound 66],control of southern armyworm at thirteen days (sorghum),Spodoptera eridania [1],70-100%
